Structures are written as SMILES. pKi: −log10 of the molar value.

In the first assay the target is T1, human glucocorticoid receptor-α [GRX] isoform (Homo sapiens, UniProt P04150).
T1 construct: purchased Ligand Pharmaceuticals (San Diego, CA); host or cells: insect SF21 cells (baculovirus)
T1 sequence (P04150 1-777): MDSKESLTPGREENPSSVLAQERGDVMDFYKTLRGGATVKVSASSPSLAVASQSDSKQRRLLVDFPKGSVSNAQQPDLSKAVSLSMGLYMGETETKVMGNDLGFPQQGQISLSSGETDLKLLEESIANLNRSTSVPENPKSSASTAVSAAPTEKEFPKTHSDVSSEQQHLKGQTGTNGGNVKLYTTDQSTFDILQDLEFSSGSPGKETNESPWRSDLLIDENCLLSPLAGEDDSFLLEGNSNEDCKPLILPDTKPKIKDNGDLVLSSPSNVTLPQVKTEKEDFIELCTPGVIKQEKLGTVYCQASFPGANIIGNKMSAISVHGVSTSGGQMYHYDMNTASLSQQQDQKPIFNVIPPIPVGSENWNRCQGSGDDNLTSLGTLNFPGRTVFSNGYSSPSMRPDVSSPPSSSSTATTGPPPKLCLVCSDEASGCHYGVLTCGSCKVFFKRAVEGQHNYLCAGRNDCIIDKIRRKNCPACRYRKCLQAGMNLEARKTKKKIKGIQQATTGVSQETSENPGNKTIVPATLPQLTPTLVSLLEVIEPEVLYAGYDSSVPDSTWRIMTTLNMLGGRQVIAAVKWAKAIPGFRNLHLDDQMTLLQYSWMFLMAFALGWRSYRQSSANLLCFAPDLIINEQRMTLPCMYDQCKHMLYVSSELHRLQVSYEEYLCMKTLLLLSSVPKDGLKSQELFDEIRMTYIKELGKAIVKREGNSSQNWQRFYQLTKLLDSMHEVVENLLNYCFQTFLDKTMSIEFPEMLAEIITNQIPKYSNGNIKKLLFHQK
The assay is described as follows: glucocorticoid receptor (GR) cytosol binding assay, [3H]-dexamethasone competition.
Conditions: not given
The text has this: For glucocorticoid receptor (OR) cytosol binding assays, the procedure described in Anal. […] Briefly, cytosol preparations of human glucocorticoid receptor-α [GRX] isoform and human progesterone receptor-A [PRA] isoform were obtained from Ligand Pharmaceuticals (San Diego, CA). Both receptor cDNAs were cloned into baculovirus expression vectors and expressed in insect SF21 cells. […] Glass fiber type C multiscreen MAFC NOB plates were from Millipore ( Burlington, MA). Hydroxyapatide Bio-Gel HTP gel was obtained from Bio-Rad Laboratories (Hercules. CA). Tris(hydroxymethyl)aminomethane (Tris), ethylenediaminetetraacetic acid (EDTA), glycerol, dithiothreitol (DTT) and sodium moylybdate were obtained from Sigma Chemicals (St. Louis, MO). Microscint-20 scintillation fluid was obtained from Packard Instrument (Meriden, CT). […] GRX and PRA binding reactions were performed in Millipore Multiscreen plates. […] Specific binding was defined as the difference between binding of [^3H]Dex in the absence and in the presence of 1µM unlabeled Dex. After an overnight incubation, 50 µL of hydroxyapatite (25 % weight/volume) slurry were added to each well and plates were incubated for 10 min at 4 °C in a plate shaker. Plates were suctioned with a Millipore vacuum manifold and each well was rinsed with 300 µL of ice-cold binding buffer. A 250 µL aliquot of Packard Microscint-20 was added to each well and the wells were shaken at room temperature for 20 minutes. The amount of radioactivity was determined with a Packard TopCount plate reader.
The term pKi denotes the negative decadic logarithm of the Ki, by convention in mol/L. In the case of `CN(C)c1ccc(C(c2ccc(N(C)C)cc2)c2cc3c(cc2Cl)OCO3)cc1` [Example 19, 4',4" bis(dimethylamino)-2-chloro-4,5-methylenedioxytriphenylmethane], the pKi is 5.80.
For the compound `CN(C)c1ccc(C(c2ccc(N(C)C)cc2)c2ccccc2I)cc1` [Example 26, 4',4" bis(dimethylamino)-2-iodotriphenylmethane], the pKi was 6.13.
`CN(C)c1ccc(C(c2ccc(N(C)C)cc2)c2cc(I)ccc2Cl)cc1` [Example 33, 4'.4" bis(dimethylamino)-2-chloro-5-iodotriphenylmethane]: the pKi was 5.64.
On the same count and under the same terms, the result for `CN(C)c1ccc(C(c2ccc(N3CCOCC3)cc2)c2cc([N+](=O)[O-])ccc2Cl)cc1` (centres unmarked) [Example 40, 4'-dimethylamino-4"-(N-morpholinyl)-2-chloro-5-nitrotriphenylmethane] reads 6.60; that for `CN(C)c1ccc(C(c2ccc(N(C)C)cc2)c2ccccc2F)cc1` [Example 25, 4',4" bis(dimethylamino)-2-fluorotriphenylmethane], 5.28.
Still for that read-out and setting: the result for `CN(C)c1ccc(C(c2ccc(N(C)CCOC(=O)c3ccccc3)cc2)c2cc([N+](=O)[O-])ccc2Cl)cc1` (centres unmarked) [Example 50, 4'-dimethylamino-4"-(N-methyl-N-(2-benzoyloxyethyl)amino)-2-chloro-5-nitrotriphenylmethane] reads 5.79; that for `CN(C)c1ccc(C(c2ccc(N(C)C)cc2)c2c(Cl)cccc2Cl)cc1` [Example 20, 4',4" bis(dimethylamino)-2,6-dichlorotriphenylmethane], 5.71.
For `CN(C)c1ccc(C(c2ccc(N(C)C)cc2)c2cc(C(F)(F)F)ccc2Cl)cc1` [Example 17, 4',4" bis(dimethylamino)-2-chloro-5-trifluoromethyltriphenylmethane], the pKi is 5.33.
Compound `Cc1ccccc1C(c1ccc(N(C)C)cc1)c1ccc(N(C)C)cc1` [Example 15, 4',4" bis(dimethylamino)-2-methyltriphenylmethane] had a pKi of 5.53.
With `COc1ccc(C(c2ccc(N(C)C)cc2)c2ccc(N(C)C)cc2)cc1` [Example 38, 4',4"bis(dimethylamino)-4-methoxytriphenylmethane], the pKi is 5.33.
With `CN(C)c1ccc(C(c2ccc(N(C)C)cc2)c2cccc(Cl)c2Cl)cc1` [Example 21, 4',4" bis(dimethylamino)-2,3-dichlorotriphenylmethane], the pKi is 5.72.
With `CN(C)c1ccc(C(c2ccc(N(C)C)cc2)c2ccccc2Br)cc1` [Example 14, 4',4" bis(dimethylamino)-2-bromotriphenylmethane], the negative logarithm of the Ki (pKi) is 5.82.
Turning to `CN(C)c1ccc(C(c2ccc(N(C)C)cc2)c2ccccc2C(F)(F)F)cc1` [Example 10, 4',4" bis(dimethylamino)-2-trifluoromethyltriphenylmethane], the pKi was 5.65.
Turning to `CN(C)c1ccc(C(c2ccc(N3CCCCC3)cc2)c2cc([N+](=O)[O-])ccc2Cl)cc1` (centres unmarked) [Example 46, 4'-dimethylamino-4"-(N-piperidinyl)-2-chloro-5-nitrotriphenylmethane], the pKi is 5.94.
On the same count and under the same terms, the result for `CCCCN(CCCC)c1ccc(C(c2ccc(N(C)C)cc2)c2cc([N+](=O)[O-])ccc2Cl)cc1` (centres unmarked) [Example 43, 4'-dimethylamino-4"-(di-n-butylamino)-2-chloro-5-nitrotriphenylmethane] reads 5.35.

The same assay, now with this note: [3H]-Dex ~0.9 nM, GRX cytosol, 4 °C overnight; Cheng-Prusoff; read-out: Ki (nM) GR.
As usually defined, the Ki is the dissociation constant of the complex between target and ligand, obtained from inhibition or displacement. As for `CN(C)c1ccc(C(c2ccc(N(C)C)cc2)c2cccc(Cl)c2)cc1` [Example 6, 4',4" bis(dimethylamino)-3-chlorotriphenylmethane], the Ki was 2520 nM.
For `CN(C)c1ccc(C(c2ccc(N(C)C)cc2)c2cc(N)ccc2Cl)cc1` [Example 59, 4',4" bis(dimethylamino)-5-amino-2-chlorotriphenylmethane], the Ki turned out to be 4600 nM.
As to `CN(C)c1ccc(C(c2ccc(N(C)C)cc2)c2cc(N(S(C)(=O)=O)S(C)(=O)=O)ccc2Cl)cc1` [Example 63, 4',4" bis(dimethylamino)-2-chloro-5-(dimethylsulphonimido)triphenylmethane], the Ki worked out at 4600 nM.
For the compound `CN(C)c1ccc(C(c2ccc(N(C)C)cc2)c2cc(NC(=O)C3CC3)ccc2Cl)cc1` [Example 62, 4',4" bis(dimethylamino)-2-chloro-5-(cyclopropylcarbamido)-triphenylmethane], the Ki was found to be 4600 nM.
Consider `COC(=O)Nc1ccc(Cl)c(C(c2ccc(N(C)C)cc2)c2ccc(N(C)C)cc2)c1` [Example 64, 4',4" bis(dimethylamino)-2-chloro-5-(methoxycarbonylamino)triphenylmethane], for which the Ki stood at 5270 nM.
In the case of `CN(C)c1ccc(C(c2ccc(N(C)C)cc2)c2cc(Br)ccc2Cl)cc1` [Example 34, 4',4" bis(dimethylamino)-5-bromo-2-chlorotriphenylmethane], the Ki worked out at 725 nM.
Consider `CN(C)c1ccc(C(c2ccccc2)c2ccccc2Cl)cc1` (centres unmarked) [Example 58, 4'-dimethylamino-2-chlorotriphenylmethane], for which the Ki was determined as 4300 nM.
In the case of `CN(C)c1ccc(C(O)(c2ccccc2)c2ccccc2Cl)cc1` (centres unmarked) [Example 57, 4'-dimethylamino-2-chlorotriphenylmethanol], the inhibition constant Ki worked out at 2030 nM.
Same read-out and setting: the result for `O=[N+]([O-])c1ccc(Cl)c(C(c2ccc(N3CCCCC3)cc2)c2ccc(N3CCCCC3)cc2)c1` [Example 13, 4',4" bis(N-piperidinyl)-2-chloro-5-nitrotriphenylmethane] reads 5000 nM; that for `CN(C)c1ccc(C(c2ccc(N(C)C)cc2)c2c(Cl)cccc2[N+](=O)[O-])cc1` [Example 12, 4',4" bis(dimethylamino)-2-chloro-6-nitrotriphenylmethane], 3850 nM; that for `CN(C)c1ccc(C(c2ccc(N(C)C)cc2)c2cc(NCc3ccco3)ccc2Cl)cc1` [Example 66, 4',4" bis(dimethylamino)-2-chloro-5-(2-furanylmethylamino)triphenylmethane], 757 nM.
For `COc1ccccc1C(c1ccc(N(C)C)cc1)c1ccc(N(C)C)cc1` [Example 8, 4',4" bis(dimethylamino)-2-methoxytriphenylmethane], the Ki is 4290 nM.
Turning to `CN(C)c1ccc(C(c2ccccc2)c2cc([N+](=O)[O-])ccc2Cl)cc1` (centres unmarked) [Example 56, 4'-dimethylamino-2-chloro-5-nitrotriphenylmethane], the Ki was 1030 nM.
As for `O=[N+]([O-])c1ccc(Cl)c(C(c2ccc(N3CCOCC3)cc2)c2ccc(N3CCOCC3)cc2)c1` [Example 22, 4',4" bis(N-morpholinyl)-2-chloro-5-nitrotriphenylmethane], the Ki stood at 386 nM.
Take `CN(C)c1ccc(C(c2ccc(N(C)C)cc2)c2cccc([N+](=O)[O-])c2)cc1` [Example 9, 4',4" bis(dimethylamino)-3-nitrotriphenylmethane]: the Ki turned out to be 1380 nM.
In the case of `Clc1cc(Cl)c(Cl)c(C(c2ccc(N3CCOCC3)cc2)c2ccc(N3CCOCC3)cc2)c1` [Example 28, 4',4" bis(N-morpholinyl)-2,3,5-trichlorotriphenylmethane], the Ki was found to be 5270 nM.
Take `CN(C(=O)OC(C)(C)C)c1ccc(C(c2ccc(N(C)C(=O)OC(C)(C)C)cc2)c2cc([N+](=O)[O-])ccc2Cl)cc1` [Example 35, 4',4" bis(N-(t-butoxycarbonyl) N-methylamino)-2-chloro-5-nitrotriphenylmethane]: the Ki was 4560 nM.
Take `CN(C)c1ccc(C(c2ccc(N(C)C)cc2)c2cc(N=Cc3ccco3)ccc2Cl)cc1` [Example 65, 4',4" bis(dimethylamino)-2-chloro-5-(2-furanylmethylimino)triphenylmethane]: the Ki is 1790 nM.
The same measure, in the same setting: the result for `CN(C)c1ccc(C(c2ccc(Cl)cc2)c2ccc(N(C)C)cc2)cc1` [Example 5, 4',4" bis(dimethylamino)-4-chlorotriphenylmethane] reads 4650 nM; that for `CN(C)c1ccc(C(Oc2ccc(Cl)cc2)c2cc([N+](=O)[O-])ccc2Cl)cc1` (centres unmarked) [Example 53, 4-chlorophenyl-[(4'-dimethylaminophenyl)-(2-chloro-5-nitrophenyl)methyl] ether], 788 nM.
